Data reported in US11976083B2, “Inhibitors of peptidylarginine deiminases” (Gilead Sciences, Inc., priority 2020, dated 2024).

Molecular target: T1, human PAD4 (Homo sapiens, UniProt Q9UM07)
T1 construct: human PAD4 (NM_012387), A2-P663, was PCR amplified; His-SUMO (N, cleaved yes); made in house; host or cells: E. coli BL21(DE3)
Assay: In vitro PAD4 BAEE biochemical assay
Settings: BAEE substrate 3 mM, 5 nM PAD4, 2 mM calcium chloride; geometric mean of multiple experiments
How it was run: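 Recombinant human PAD4 (5 nM final) with 2 mM CaCl2 was preincubated with compound 30 min at 25 °C in MOPS buffer pH 7.6, then reacted with 3 mM BAEE for 2 h at 25 °C. After EDTA stop, released ammonia was detected by o-phthalaldehyde/DTT fluorescence (ex 405/em 535 nm); IC50 from four-parameter fit, geometric mean.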

T1 sequence (Q9UM07 2-663): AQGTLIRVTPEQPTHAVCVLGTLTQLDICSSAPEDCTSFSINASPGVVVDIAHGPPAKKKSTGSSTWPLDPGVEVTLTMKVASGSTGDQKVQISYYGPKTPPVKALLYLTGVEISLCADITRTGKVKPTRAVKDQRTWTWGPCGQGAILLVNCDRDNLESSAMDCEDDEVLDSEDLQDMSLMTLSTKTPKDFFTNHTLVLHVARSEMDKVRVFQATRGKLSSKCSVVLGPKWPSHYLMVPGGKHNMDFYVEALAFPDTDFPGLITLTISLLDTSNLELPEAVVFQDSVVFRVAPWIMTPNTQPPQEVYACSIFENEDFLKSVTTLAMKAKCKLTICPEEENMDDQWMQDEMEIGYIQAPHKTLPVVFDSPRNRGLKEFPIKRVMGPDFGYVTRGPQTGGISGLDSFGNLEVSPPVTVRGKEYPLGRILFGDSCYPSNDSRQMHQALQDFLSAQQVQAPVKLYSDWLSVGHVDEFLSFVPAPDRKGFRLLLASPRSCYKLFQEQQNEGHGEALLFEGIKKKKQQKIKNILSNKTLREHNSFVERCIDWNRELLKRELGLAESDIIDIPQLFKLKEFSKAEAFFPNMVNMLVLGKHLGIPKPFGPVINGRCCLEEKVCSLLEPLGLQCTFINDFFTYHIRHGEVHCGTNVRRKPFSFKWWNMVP

| Compound | IC50 [nM] |
| --- | --- |
| COc1cc(C(=O)N2C[C@H](N)[C@@H]3CC[C@H]2C3)cc2nc(-c3cc4ccc5nc4n3CCCCC[C@@H]3C[C@@]3(C)C(=O)N[C@@H]5C)n(C)c12 [Example 917, (2~{R},5~{R},7~{R})-14-[5-[(1~{S),4~{R},5~{R})-4-amino-2-azabicyclo[3.2.1]octane-2-carbonyl]-7-methoxy-1-methyl-benzimidazol-2-yl]-2,5-dimethyl-3,13,19-triazatetracyclo[11.5.2.0^ {5,7}.0^{16,20}]icosa-1(19), 14,16(20),17-tetraen-4-one] | 27 |
| C[C@H]1NC(=O)[C@@H]2C[C@@]2(F)CC[C@@H]2C[C@@H]2Cn2c(-c3nc4cc(C(=O)N5C[C@H](N)[C@@H]6CC[C@H]5C6)cc(F)c4n3C3CC3)cc3ccc1nc32 [Example 918, (3~{S},5~{R},8~{S},10~{S}, 13~{R})-19-[5-[(1~{S), 4~{R},5~{R})-4-amino-2-azabicyclo[3.2.1]octane-2-carbonyl]-1-cyclopropyl-7-fluoro-benzimidazol-2-yl]-8-fluoro-13-methyl-1,12,21-triazapentacyclo[12.5.2.0^ {3,5}.0^{8,10}.0^{17,20}] henicosa-14(21),15, 17(20),18-tetraen-11-one] | 31 |
| C[C@H]1NC(=O)[C@@H]2C[C@@]2(F)/C=C/CCCn2c(-c3nc4cc(C(=O)N5C[C@H](N)[C@@H]6CC[C@H]5C6)cc(F)c4n3C3CC3)cc3ccc1nc32 [Example 919, (2~{R},5~{S},7~{R},8~{E})-14-[5-[(1~{S},4~{R},5~{R})-4-amino-2-azabicyclo[3.2.1]octane-2-carbonyl]-1-cyclopropyl-7-fluoro-benzimidazol-2-yl]-7-fluoro-2-methyl-3,13,19-triazatetracyclo[11.5.2.0^ {5,7}.0^{16,20}]icosa-1(19),8,14,16(20),17-pentaen-4-one] | 20 |
| C[C@H]1NC(=O)[C@@H]2C[C@@]2(F)CCCCCn2c(-c3nc4cc(C(=O)N5C[C@H](N)[C@@H]6CC[C@H]5C6)cc(F)c4n3CC(F)F)cc3ccc1nc32 [Example 920, (2~{R},5~{S},7~{S})-14-[5-[(1~{S),4~{R},5~{R})-4-amino-2-azabicyclo[3.2.1]octane-2-carbonyl]-1-(2,2-difluoroethyl)-7-fluoro-benzimidazol-2-yl]-7-fluoro-2-methyl-3,13,19-triazatetracyclo [11.5.2.0^{5,7}.0^{16,20}] icosa-1(19),14,16(20),17-tetraen-4-one] | 21 |
| C[C@H]1NC(=O)c2ccc(Cl)nc2CCCCCn2c(-c3nc4cc(C(=O)N5C[C@H](N)[C@@H]6CC[C@H]5C6)cc(F)c4n3CC3CC3)cc3ccc1nc32 [Example 921, (2~{R})-17-[5-[(1~{S},4~{R},5~ {R})-4-amino-2-azabicyclo [3.2.1]octane-2-carbonyl]-1-(cyclopropylmethyl)-7-fluoro-benzimidazol-2-yl]-8-chloro-2-methyl-3,9,16,22-tetrazatetracyclo[14.5.2.0^ {5,10}.0^{19,23}]tricosa-1(22),5(10),6,8,17,19(23),20-heptaen-4-one] | 30 |
| C[C@H]1NC(=O)[C@@H]2C[C@H]2CCCC(F)(F)Cn2c(-c3nc4cc(C(=O)N5C[C@H](N)[C@@H]6CC[C@H]5C6)cc(F)c4n3CC(F)F)cc3ccc1nc32 [Example 922, (2~{R},5~{R},7~{R})-14-[5-[(1~{S},4~{R},5~{R})-4-amino-2-azabicyclo[3.2.1]octane-2-carbonyl]-1-(2,2-difluoroethyl)-7-fluoro-benzimidazol-2-yl]-11,11-difluoro-2-methyl-3,13,19-triazatetracyclo [11.5.2.0^{5,7}.0^{16,20}] icosa-1(19),14,16(20),17-tetraen-4-one] | 35 |
